Columns and labels:
[1] = target: T1, human MR (Homo sapiens, UniProt P08235); assay: Mineralocorticoid Receptor Binding Assay ([3H]-aldosterone); details: [3H]-aldosterone binding, human MR expressed in Sf9 cells; read-out: MR Ki
T1 construct: The full length human MR gene is cloned from a human kidney or human brain cDNA library; His tag from the pAcHLT vector (own knowledge); made in house; host or cells: Sf9 insect cells (baculovirus, pAcHLT transfer vector)
T1 sequence (P08235 1-984): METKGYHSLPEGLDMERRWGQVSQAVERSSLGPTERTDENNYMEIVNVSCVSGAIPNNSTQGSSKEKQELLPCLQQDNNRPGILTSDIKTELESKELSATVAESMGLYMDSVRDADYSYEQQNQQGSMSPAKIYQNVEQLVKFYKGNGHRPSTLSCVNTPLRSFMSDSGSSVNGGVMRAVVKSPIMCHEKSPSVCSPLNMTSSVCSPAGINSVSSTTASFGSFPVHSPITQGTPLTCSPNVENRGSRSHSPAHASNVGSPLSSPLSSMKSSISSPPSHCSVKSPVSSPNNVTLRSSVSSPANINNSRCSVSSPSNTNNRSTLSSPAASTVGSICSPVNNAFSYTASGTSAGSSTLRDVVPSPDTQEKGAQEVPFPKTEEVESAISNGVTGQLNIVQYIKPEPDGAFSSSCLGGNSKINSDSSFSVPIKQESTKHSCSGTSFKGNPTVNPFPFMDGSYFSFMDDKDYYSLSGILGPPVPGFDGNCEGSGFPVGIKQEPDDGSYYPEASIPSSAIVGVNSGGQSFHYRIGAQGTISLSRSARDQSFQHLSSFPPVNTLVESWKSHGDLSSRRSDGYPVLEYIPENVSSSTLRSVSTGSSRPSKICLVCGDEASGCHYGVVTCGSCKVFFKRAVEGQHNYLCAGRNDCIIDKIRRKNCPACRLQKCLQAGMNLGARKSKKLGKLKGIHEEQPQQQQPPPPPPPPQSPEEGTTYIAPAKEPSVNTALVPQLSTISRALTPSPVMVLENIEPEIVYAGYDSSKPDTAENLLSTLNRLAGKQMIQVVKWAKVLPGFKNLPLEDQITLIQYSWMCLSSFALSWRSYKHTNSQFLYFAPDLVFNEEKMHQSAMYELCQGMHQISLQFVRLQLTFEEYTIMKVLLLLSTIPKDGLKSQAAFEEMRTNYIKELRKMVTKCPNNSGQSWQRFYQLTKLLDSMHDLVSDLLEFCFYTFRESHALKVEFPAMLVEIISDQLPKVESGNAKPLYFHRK
Procedure, shortened: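 Lysate supernatant of Sf9 cells expressing full-length human MR (20-25 μg protein) was incubated with 0.5 nM [3H]-aldosterone and test compound in molybdate/Tris/phosphate/glycerol buffer, pH 7.5, ~16 h at 4 °C. Bound ligand was filtered and counted by scintillation; IC50 is the concentration halving [3H]-aldosterone binding.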

[2] = target: T2, glucocorticoid receptor (Homo sapiens, UniProt P04150); assay: Glucocorticoid Receptor Binding Assay ([3H]-dexamethasone, A549 cell extract); details: [3H]-dexamethasone binding, read-out: GR Ki
T2 construct: containing 50-200 ug of A549 cell extract and 1.86 nM [^3H]-dexamethasone; host or cells: A549 human lung epithelial cells (sonicated cell extract)
T2 sequence (P04150 1-777): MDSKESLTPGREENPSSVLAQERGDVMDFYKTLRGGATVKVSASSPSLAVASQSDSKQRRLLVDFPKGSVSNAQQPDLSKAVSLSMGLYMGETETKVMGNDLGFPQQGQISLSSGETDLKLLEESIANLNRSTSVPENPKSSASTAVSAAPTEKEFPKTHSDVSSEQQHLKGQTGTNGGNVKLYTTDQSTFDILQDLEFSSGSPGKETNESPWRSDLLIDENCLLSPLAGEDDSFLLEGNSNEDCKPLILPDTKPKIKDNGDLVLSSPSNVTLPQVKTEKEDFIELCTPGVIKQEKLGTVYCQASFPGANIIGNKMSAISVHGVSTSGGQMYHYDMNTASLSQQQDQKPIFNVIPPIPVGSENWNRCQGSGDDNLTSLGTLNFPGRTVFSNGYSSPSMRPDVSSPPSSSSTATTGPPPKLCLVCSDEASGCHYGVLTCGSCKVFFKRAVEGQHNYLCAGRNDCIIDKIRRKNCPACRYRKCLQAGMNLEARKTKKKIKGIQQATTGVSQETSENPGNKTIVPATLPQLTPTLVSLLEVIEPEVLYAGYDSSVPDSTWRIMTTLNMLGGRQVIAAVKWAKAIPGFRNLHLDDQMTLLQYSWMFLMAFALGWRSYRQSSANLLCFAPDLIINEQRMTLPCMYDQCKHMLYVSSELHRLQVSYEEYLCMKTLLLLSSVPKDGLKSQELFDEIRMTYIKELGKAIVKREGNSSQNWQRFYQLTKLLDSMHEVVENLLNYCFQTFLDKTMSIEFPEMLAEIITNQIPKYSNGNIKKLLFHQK
Procedure, shortened: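 A549 cell extract (50–200 ug) incubated with 1.86 nM [3H]-dexamethasone and test compound for 16 h at 4 °C in Tris-HCl pH 7.2 buffer with glycerol and molybdate. Unbound radioligand removed by dextran-coated charcoal, then supernatant bound counts measured by scintillation.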

SMILES	Ki [1] [nM]	Ki [2] [nM]
O=c1[nH]c2cc(/C=C3/c4ccccc4COc4cc(F)ccc43)ccc2o1 [Example 632]	< 500	< 500
O=c1[nH]c2cc(/C=C3\c4ccccc4COc4cc(F)ccc43)ccc2o1 [Example 633]	< 500	< 500
Cn1c(=O)[nH]c2cc(/C=C3/c4ccccc4COc4cc(F)ccc43)ccc21 [Example 634]	< 500	< 500
Cn1c(=O)[nH]c2cc(/C=C3\c4ccccc4COc4cc(F)ccc43)ccc21 [Example 635]	< 500	< 1000
O=c1[nH]c2cc(/C=C3/c4ccccc4COc4cc(F)ccc43)ccc2s1 [Example 636]	< 500	< 500
O=c1[nH]c2cc(/C=C3\c4ccccc4COc4cc(F)ccc43)ccc2s1 [Example 637]	< 500	< 500
CC(C)n1c(=O)[nH]c2cc(/C=C3/c4ccccc4COc4cc(F)ccc43)ccc21 [Example 638]	< 500	< 1000
COc1ccc2c(c1)OCc1ccccc1C2=Cc1ccc2[nH]c(=O)[nH]c2c1 [Example 639]	< 500	< 10000
Fc1ccc2c(c1)OCc1ccccc1C2=Cc1cccc(C(F)F)c1 [Example 640]	< 500	< 500
O=c1[nH]c2ccc(/C=C3\c4ccc(Cl)cc4COc4ccccc43)cc2[nH]1 [Example 641]	< 500	< 1000
O=c1[nH]c2ccc(/C=C3\c4ccccc4COc4c(F)cccc43)cc2[nH]1 [Example 642]	< 500	< 1000
O=c1[nH]c2ccc(/C=C3\c4ccccc4COc4cc(C(F)(F)F)ccc43)cc2[nH]1 [Example 643]	< 500	< 10000
O=c1[nH]c2ccc(C=C3c4ccc(F)cc4COc4cc(F)ccc43)cc2[nH]1 [Example 644]	< 500	< 1000
O=c1[nH]c2cc(/C=C3\c4ccccc4COc4cc(F)ccc43)ccc2n1CCN1CCCC1 [Example 646]	< 500	< 1000
O=c1[nH]c2cc(/C=C3\c4ccccc4COc4cc(Cl)ccc43)ccc2n1CCN1CCOCC1 [Example 647]	< 500	< 1000
COc1cccc(C=C2c3ccccc3CNc3ccccc32)c1 [Example 650]	< 500	< 500
CN1C(=O)c2ccccc2C(=Cc2cccc(N)c2)c2ccccc21 [Example 651]	< 500	< 1000
CN1C(=O)c2ccccc2C(=Cc2cccc(NS(C)(=O)=O)c2)c2ccccc21 [Example 652]	< 500	< 10000
CN1Cc2ccccc2C(=Cc2cccc(NS(C)(=O)=O)c2)c2ccccc21 [Example 653]	< 500	< 1000
COc1cccc(C=C2c3cc(Cl)ccc3NC(=O)c3ccccc32)c1 [Example 654]	< 500	< 500
COc1cccc(C=C2c3ccccc3C(=O)N(C)c3ccc(Cl)cc32)c1 [Example 656]	< 500	< 500
COC(=O)c1ccc2c(c1)/C(=C\c1cccc(NS(C)(=O)=O)c1)c1ccccc1CO2 [Example 659]	< 1000	< 10000

The next lines start with the values.

Ki [1] [nM]	Ki [2] [nM]	SMILES
< 500	< 500	O=c1[nH]c2cc(C=C3c4ccccc4[C@H]4C[C@H]4c4ccccc43)ccc2o1 [Example 606]
< 500	< 1000	O=c1[nH]c2cc(/C=C3\c4ccccc4COc4cc(F)ccc43)ccc2n1CCN1CCOCC1 [Example 607, 5-(3-Fluoro-6H-dibenzo[b,e]oxepin-11-ylidenemethyl)-1-(2-morpholin-4-yl-ethyl)-1,3-dihydro-benzoimidazol-2-one]
< 500	< 10000	O=c1[nH]c2cc(/C=C3\c4ccccc4COc4cc(F)ccc43)ccc2n1CCCN1CCOCC1 [Example 608, 5-(3-fluoro-6H-dibenzo[b,e]oxepin-11-ylidenemethyl)-1-(3-morpholin-4-yl-propyl)-1,3-dihydro-benzoimidazol-2-one]
< 500	< 1000	O=c1[nH]c2cc(/C=C3\c4ccccc4COc4cc(F)ccc43)ccc2n1C1CC1 [Example 609, 1-cyclopropyl-5-(3-fluoro-6H-dibenzo[b,e]oxepin-11-ylidenemethyl)-1,3-dihydro-benzoimidazol-2-one]
< 500	< 10000	CC(C)n1c(=O)[nH]c2cc(/C=C3\c4ccccc4COc4cc(F)ccc43)ccc21 [Example 612, 5-(3-Fluoro-6H-dibenzo[b,e]oxepin-11-ylidenemethyl)-1-isopropyl-1,3-dihydro-benzoimidazol-2-one]
< 500	< 500	O=c1[nH]c2ccc(/C=C3\c4ccc(F)cc4COc4cc(F)ccc43)cc2[nH]1 [Example 613, 5-(3,8-Difluoro-6H-dibenzo[b,e]oxepin-11-ylidenemethyl)-1,3-dihydro-benzoimidazol-2-one]
< 500	< 1000	O=c1[nH]c2ccc(/C=C3\c4ccccc4COc4cc(Cl)ccc43)cc2[nH]1 [Example 614, 5-(3-Chloro-6H-dibenzo[b,e]oxepin-11-ylidenemethyl)-1,3-dihydro-benzoimidazol-2-one]
< 500	< 500	O=c1[nH]c2cc(/C=C3\c4ccc(F)cc4COc4cc(F)ccc43)ccc2n1CCN1CCOCC1 [Example 617, 5-(3,8-Difluoro-6H-dibenzo[b,e]oxepin-11-ylidenemethyl)-1-(2-morpholin-4-yl-ethyl)-1,3-dihydro-benzoimidazol-2-one]
< 500	< 500	O=c1[nH]c2cc(/C=C3/c4ccccc4COc4ccccc43)ccc2o1 [Example 619]
< 500	< 500	O=c1[nH]c2cc(/C=C3\c4ccccc4COc4ccccc43)ccc2o1 [Example 620]
< 500	< 10000	CS(=O)(=O)Nc1cccc(/C=C2/c3ccccc3OCc3c(Cl)cccc32)c1 [Example 622]
< 500	< 500	CS(=O)(=O)Nc1cc(F)cc(/C=C2\c3ccc(Cl)cc3COc3ccccc32)c1 [Example 623]
< 500	< 500	CS(=O)(=O)Nc1cc(F)cc(/C=C2/c3ccc(Cl)cc3COc3ccccc32)c1 [Example 624]
< 500	< 10000	O=c1[nH]c2ccc(C=C3c4ccccc4COc4ccccc43)cc2[nH]1 [Example 626]
< 500	< 500	Oc1cccc(/C=C2/c3ccccc3COc3cc(F)ccc32)c1 [Example 627]
< 500	< 500	Oc1cccc(/C=C2\c3ccccc3COc3cc(F)ccc32)c1 [Example 628]
< 500	< 500	CS(=O)(=O)Nc1cccc(/C=C2/c3ccccc3COc3cc(F)ccc32)c1 [Example 629]
< 500	< 500	CS(=O)(=O)Nc1cccc(/C=C2\c3ccccc3COc3cc(F)ccc32)c1 [Example 630]
